Experimental data: PubChem BioAssay (NCI)
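All cell lines were grown in 96-well plates and treated with compound for 48 hours. TGI is the concentration that stops growth completely.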

Assays:
Assay in all cases: NCI anticancer screen, dose series, 48 h
[1] = test system: SNB-75 CNS
[2] = test system: NCI-H522 lung
[3] = test system: SK-MEL-2 melanoma
[4] = test system: UACC-257 melanoma
[5] = test system: T-47D breast
[6] = test system: SR leukemia
[7] = test system: MDA-MB-231 breast
[8] = test system: HL-60(TB) leukemia
[9] = test system: ACHN renal
[10] = test system: MOLT-4 leukemia
[11] = test system: HS 578T breast
[12] = test system: U251 CNS
[13] = test system: KM12 colon
[14] = test system: SF-539 CNS
[15] = test system: MCF7 breast
[16] = test system: CAKI-1 renal
[17] = test system: RPMI-8226 leukemia
[18] = test system: 786-0 renal
[19] = test system: K-562 leukemia
[20] = test system: MDA-N
[21] = test system: RXF 393 renal
[22] = test system: UACC-62 melanoma
[23] = test system: A549 NSCLC
[24] = test system: SNB-19 CNS
[25] = test system: CCRF-CEM leukemia
[26] = test system: EKVX NSCLC
[27] = test system: MDA-MB-435
[28] = test system: SW-620 colon
[29] = test system: HCT-116 colon
[30] = test system: TK-10 renal
[31] = test system: MALME-3M melanoma
[32] = test system: SF-268 CNS
[33] = test system: LOX IMVI melanoma
[34] = test system: OVCAR-4 ovarian
[35] = test system: NCI-H23 lung
[36] = test system: COLO 205 colon
[37] = test system: PC-3 prostate
[38] = test system: SK-OV-3 ovarian
[39] = test system: SK-MEL-28 melanoma
[40] = test system: HCC-2998 colon
[41] = test system: M14 melanoma
[42] = test system: SK-MEL-5 melanoma
[43] = test system: OVCAR-8 ovarian
[44] = test system: OVCAR-5 ovarian
[45] = test system: HCT-15 colon
[46] = test system: HOP-62 NSCLC
[47] = test system: SF-295 CNS
[48] = test system: SN12C renal
[49] = test system: UO-31 renal
[50] = test system: NCI/ADR-RES ovarian
[51] = test system: DU-145 prostate
[52] = test system: HT29 colon
[53] = test system: IGROV1 ovarian
[54] = test system: NCI-H226 lung
[55] = test system: A498 renal
[56] = test system: HOP-92 NSCLC

CN(C)/N=C1\CC(c2ccccc2)C(C#N)(C#N)C1(C#N)C#N (stereo unspecified)
TGI [1]: 33.9 µM | TGI [2]: 35.3 µM | TGI [3]: 40 µM | TGI [4]: 34.3 µM | TGI [5]: 50.3 µM | TGI [6]: > 100 µM | TGI [7]: 36.9 µM | TGI [8]: > 100 µM | TGI [9]: 34.8 µM | TGI [10]: 56.5 µM | TGI [11]: 75.1 µM | TGI [12]: > 100 µM | TGI [13]: > 100 µM | TGI [14]: > 100 µM | TGI [15]: > 100 µM | TGI [16]: 21.9 µM | TGI [17]: 47.2 µM | TGI [18]: 42.3 µM | TGI [19]: > 100 µM | TGI [20]: 40 µM | TGI [21]: 54.5 µM | TGI [22]: 41.8 µM | TGI [23]: > 100 µM | TGI [24]: 54.1 µM | TGI [25]: > 100 µM | TGI [26]: > 100 µM | TGI [27]: 81.8 µM | TGI [28]: 36.2 µM | TGI [29]: 39.8 µM | TGI [30]: 32.4 µM | TGI [31]: 34.2 µM | TGI [32]: 35.6 µM | TGI [33]: 79.2 µM | TGI [34]: > 100 µM | TGI [35]: 53.1 µM | TGI [36]: 22.1 µM | TGI [37]: 35.6 µM | TGI [38]: > 100 µM | TGI [39]: 46 µM | TGI [40]: 33.1 µM | TGI [41]: 34.3 µM | TGI [42]: 24.4 µM | TGI [43]: 41.9 µM | TGI [44]: 59.1 µM | TGI [45]: 30.1 µM | TGI [46]: 59 µM | TGI [47]: 48.1 µM | TGI [48]: 36.9 µM | TGI [49]: 34.4 µM | TGI [50]: 72.1 µM | TGI [51]: 36.2 µM | TGI [52]: 50.5 µM | TGI [53]: 45.3 µM | TGI [54]: 84.7 µM | TGI [55]: 33.8 µM | TGI [56]: 29.7 µM
